Results taken from US8076351B2, “Camptothecin derivatives with antitumor activity” (Indena S.p.A., priority 2006, dated 2011).
Values after ≈ are worked out from the molar mass of the structure shown. Read-outs that look alike come from different tables or passages of the source.

Legend:
[1] = test system: NCI-H460 cell line (NSCL cancer); experiment: Cell growth inhibition assay (cytotoxicity, cell count); assay type: cell-based, human
Method: The compounds of the invention were tested in a cytotoxicity assay on a wide spectrum of tumour cells. By way of example, the cytotoxicity data on the NCI-H460 cell line (NSCL cancer) concerning two compounds of formula (I) are reported, using camptothecin and the drugs Topotecan and SN-38 as references:
H460 Cells from human large cell lung tumor were cultured in RPMI-1640 medium containing 10% foetal calf serum. Cell sensitivity was determined by cell growth inhibition assay after 1 or 72 hr drug exposure. The cells in logarithmic growth were collected and seeded in duplicate in 6-wells plates. […] IC50 is defined as the concentration inhibiting by 50% cell growth compared with untreated controls growth.

[2] = target: T1, human recombinant enzyme (full length top1) (Homo sapiens, UniProt P11387); experiment: Topoisomerase-I-dependent DNA rupture assay, DNA damage persistence; assay type: biochemical; conditions: 30 min incubation with 10 μM drug
T1 construct: the human recombinant enzyme (full length top1)
T1 sequence (P11387 1-765): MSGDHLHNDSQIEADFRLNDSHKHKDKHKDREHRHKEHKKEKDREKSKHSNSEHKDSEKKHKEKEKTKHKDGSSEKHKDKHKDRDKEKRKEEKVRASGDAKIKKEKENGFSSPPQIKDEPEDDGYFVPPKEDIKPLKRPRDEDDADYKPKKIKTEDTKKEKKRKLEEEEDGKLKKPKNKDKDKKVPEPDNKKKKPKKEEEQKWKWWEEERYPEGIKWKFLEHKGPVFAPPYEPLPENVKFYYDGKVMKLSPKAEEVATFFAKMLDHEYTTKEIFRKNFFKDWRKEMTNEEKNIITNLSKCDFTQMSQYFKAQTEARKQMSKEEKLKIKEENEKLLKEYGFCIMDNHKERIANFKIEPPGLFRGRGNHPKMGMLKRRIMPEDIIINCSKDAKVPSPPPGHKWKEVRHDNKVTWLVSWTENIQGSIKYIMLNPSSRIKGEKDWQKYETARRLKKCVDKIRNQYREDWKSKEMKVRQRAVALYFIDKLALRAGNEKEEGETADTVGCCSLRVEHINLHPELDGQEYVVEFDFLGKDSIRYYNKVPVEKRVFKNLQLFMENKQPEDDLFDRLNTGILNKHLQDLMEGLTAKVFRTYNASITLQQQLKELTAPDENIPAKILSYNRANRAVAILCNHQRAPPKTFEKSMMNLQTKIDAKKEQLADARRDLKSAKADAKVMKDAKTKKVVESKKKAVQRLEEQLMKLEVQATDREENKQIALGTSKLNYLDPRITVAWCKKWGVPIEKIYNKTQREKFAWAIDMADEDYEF
Method: DNA ruptures were determined using a 751-bp BamHI-EcoRI DNA SV40 purified gel (Beretta G L, Binaschi M, Zagni A N D, Capuani L, Capranico G. Tethering a type IB topoisomerase to a DNA site by enzyme fusion to a heterologous site-selective DNA-binding protein domain. Cancer Res 1999; 59:3689-97). DNA fragments were only labeled at 3′. The DNA rupture reaction (20,000 cpm/sample) was carried out in […] of 10 mM Tris-HCL (pH 7.6), 150 mM KCl, 5 mM MgCl2, 15 μg/mL BSA, 0.1 mM thiothreitol, and the human recombinant enzyme (full length top1) for 30 min at 37° C. The reactions were blocked using 0.5% SDS and 0.3 mg/mL K proteinase for 45 min. at 42° C. DNA damage persistence was tested at different times adding 0.6M NaCl after 30 min. incubation with 10 μM of the drug. After precipitation, DNA was resuspended in denaturation buffer (80% formamide, 10 mM NaOH, 0.01 M EDTA and 1 mg/mL dye) before seeding in desaturating gel (7% polyacrylamide in TBE buffer).

[3] = NCI-H460, H460 human large cell lung tumor cells, 1 or 72 hr drug exposure, counted with Coulter counter 72 hours after exposure, read-out: NCI-H460 IC50 (μg/mL) Cell count
[4] = Time 0 min after adding 0.6M NaCl
[5] = Time 1 min after adding 0.6M NaCl
[6] = Time 5 min after adding 0.6M NaCl
[7] = Time 10 min after adding 0.6M NaCl

CC[C@@]1(O)C(=O)OCc2c1cc1n(c2=O)Cc2cc3ccccc3nc2-1 [Camptothecin]
IC50 [1, 3]: 0.115 ± 0.0174 µg/mL (≈ 0.33 µM) | Persitence of DNA damage (%) [2, 4]: 100% | Persitence of DNA damage (%) [2, 5]: 58% | Persitence of DNA damage (%) [2, 6]: 23% | Persitence of DNA damage (%) [2, 7]: 20%

CC[C@@]1(O)C(=O)OCC2=C1C=C1c3nc4ccccc4cc3C3NN=C2N13 (stereo partly drawn) [IDN 6132]
IC50 [1, 3]: 17 ± 4.25 µg/mL (≈ 47.2 µM) | Persitence of DNA damage (%) [2, 4]: 100% | Persitence of DNA damage (%) [2, 5]: 45% | Persitence of DNA damage (%) [2, 6]: 32% | Persitence of DNA damage (%) [2, 7]: 20%

CC[C@@]1(O)C(=O)OCc2c1cc1c3nc4ccccc4cc3c3nnc2n13 [IDN 6137, triazole[5,4-c]16a-deoxocamptothecin]
IC50 ([1]; Homo sapiens, NCI-H460, read-out: NCI-H460 IC50 (μg/mL) Cell count): 3.8 ± 1.08 µg/mL (≈ 10.6 µM)

CCc1c2c(nc3ccc(O)cc13)-c1cc3c(c(=O)n1C2)COC(=O)[C@]3(O)CC [SN38, 10-hydroxy-7-ethylcamptothecin]
IC50 [1, 3]: 0.0865 ± 0.0049 µg/mL (≈ 0.22 µM) | Persitence of DNA damage (%) [2, 4]: 100% | Persitence of DNA damage (%) [2, 5]: 60% | Persitence of DNA damage (%) [2, 6]: 33% | Persitence of DNA damage (%) [2, 7]: 28%

CC[C@@]1(O)C(=O)OCc2c1cc1n(c2=O)Cc2cc3c(CN(C)C)c(O)ccc3nc2-1 [Topotecan]
IC50 [1, 3]: 0.63 ± 0.44 µg/mL (≈ 1.49 µM) | Persitence of DNA damage (%) [2, 4]: 100% | Persitence of DNA damage (%) [2, 5]: 65% | Persitence of DNA damage (%) [2, 6]: 20% | Persitence of DNA damage (%) [2, 7]: 10%
